Legend:
Assay in all cases: relative viability (nuclei count vs DMSO), 5 days (fraction); higher = more cells survive
IPA-3 + Phenformin = compound: C1=CC=C2C(=C1)C=CC(=C2SSC3=C(C=CC4=CC=CC=C43)O)O [IPA-3] + N=C(N)NC(=N)NCCc1ccccc1 [Phenformin] (partner 250 µM)
Summary of the method: (§1)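 Medians of duplicate plates are given as relative viability. That measure is the nuclei count in treated wells divided by the count in vehicle wells. Counts were taken on 4× images of lung cancer cell lines in 1536-well plates, 5 days after pin-tool dosing the day after seeding with one drug alone or a fixed anchor-drug dose plus five library-drug doses (not always all listed) in √10 steps.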

Doramapimod + Lapatinib = compound: Cc1ccc(-n2nc(C(C)(C)C)cc2NC(=O)Nc2ccc(OCCN3CCOCC3)c3ccccc23)cc1 [Doramapimod] + CS(=O)(=O)CCNCc1ccc(-c2ccc3ncnc(Nc4ccc(OCc5cccc(F)c5)c(Cl)c4)c3c2)o1 [Lapatinib] (partner 2 µM)
Summary of the method: as §1

RAF265 + Luminespib = compound: Cn1c(Nc2ccc(C(F)(F)F)cc2)nc2cc(Oc3ccnc(-c4ncc(C(F)(F)F)[nH]4)c3)ccc21 [RAF265] + CCNC(=O)c1noc(-c2cc(C(C)C)c(O)cc2O)c1-c1ccc(CN2CCOCC2)cc1 [Luminespib] (partner 0.01 µM)
Summary of the method: as §1

RAF265 + Dasatinib = compound: Cn1c(Nc2ccc(C(F)(F)F)cc2)nc2cc(Oc3ccnc(-c4ncc(C(F)(F)F)[nH]4)c3)ccc21 [RAF265] + Cc1nc(Nc2ncc(C(=O)Nc3c(C)cccc3Cl)s2)cc(N2CCN(CCO)CC2)n1 [Dasatinib] (partner 0.075 µM)
Summary of the method: as §1

Q: UMC-11 was tested. Which relative viability (IPA-3 + Phenformin; first compound 0.2 µM) did it give?
A: Its relative viability is 0.391.

Q: What about the relative viability (IPA-3 + Phenformin; first compound 0.6325 µM) of the same cell line?
A: Its relative viability is 0.336.

Q: And the relative viability (IPA-3 + Phenformin; first compound 2 µM)?
A: Its relative viability is 0.316.

Q: And the relative viability (IPA-3 + Phenformin; first compound 6.325 µM)?
A: Its relative viability is 0.341.

Q: What about the relative viability (IPA-3 + Phenformin; first compound 20 µM) of the same cell line?
A: Its relative viability is 0.357.

Q: And the relative viability (Doramapimod + Lapatinib; first compound 0.02 µM)?
A: Its relative viability is 1.09.

Q: What about the relative viability (Doramapimod + Lapatinib; first compound 0.06325 µM) of the same cell line?
A: Its relative viability is 0.957.

Q: And the relative viability (Doramapimod + Lapatinib; first compound 0.2 µM)?
A: Its relative viability is 0.901.

Q: What about the relative viability (Doramapimod + Lapatinib; first compound 0.6325 µM) of the same cell line?
A: The relative viability was 0.743.

Q: What about the relative viability (Doramapimod + Lapatinib; first compound 2 µM) of the same cell line?
A: Its relative viability is 0.654.

Q: What about the relative viability (RAF265 + Luminespib; first compound 0.01 µM) of the same cell line?
A: The relative viability was 0.984.

Q: What about the relative viability (RAF265 + Luminespib; first compound 0.03162 µM) of the same cell line?
A: Its relative viability is 1.01.

Q: What about the relative viability (RAF265 + Luminespib; first compound 0.1 µM) of the same cell line?
A: The relative viability was 1.06.

Q: And the relative viability (RAF265 + Luminespib; first compound 0.3162 µM)?
A: The relative viability was 1.01.

Q: And the relative viability (RAF265 + Luminespib; first compound 1 µM)?
A: The relative viability was 0.936.

Q: And the relative viability (RAF265 + Dasatinib; first compound 0.01 µM)?
A: Its relative viability is 0.443.

Q: What about the relative viability (RAF265 + Dasatinib; first compound 0.03162 µM) of the same cell line?
A: The relative viability was 0.442.

Q: What about the relative viability (RAF265 + Dasatinib; first compound 0.1 µM) of the same cell line?
A: The relative viability was 0.457.

Q: And the relative viability (RAF265 + Dasatinib; first compound 0.3162 µM)?
A: The relative viability was 0.444.

Q: And the relative viability (RAF265 + Dasatinib; first compound 1 µM)?
A: The relative viability was 0.4.
